Reference: patent US10238670B2, “9-aminomethyl minocycline compounds and methods of use thereof in urinary tract infection (UTI) treatment” (Paratek Pharmaceuticals, Inc., priority 2016, dated 2019)
Like-named read-outs stand apart in the source and are kept apart here.

Assays:
[1] = tested on: E. coli (ATCC 25922) biofilm; assay: MBEC assay, activity against established 24 hour biofilm; assay type: cell-based, Escherichia coli; conditions: 24 hours challenge
Description: (§1) The MBEC™ assay (formerly the Calgary biofilm device; Innovotech Inc., Canada) is a well-established high throughput assay for assessment of anti-biofilm activity of test agents in a 96-well format. Within this assay, the biofilm is formed on the plastic pegs of the plate lid. After inoculated media is introduced to the wells of the 96-well plate, the plate is placed in a shaking incubator to generate the necessary shear force for biofilm growth on the pegs. Following a suitable incubation time, the individual biofilms can be treated with varying concentrations of test agents (challenge plate). After the desired treatment time, the remaining biofilm-associated bacteria are retrieved from the pegs through sonication (recovery plate). Serial dilution and/or plating of the recovered bacterial suspension allow for the quantification of test agents' efficacy against pre-formed biofilms. Additionally, readout of the challenge plate from the biofilm treatment can be used to determine MIC values of test agents. The absence of growth in the recovery plate indicates complete biofilm eradication and the lowest concentration of a test agent that achieves this is designated as the minimum biofilm eradication concentration (MBEC). The MBEC™ assay is also amenable to assess potential synergistic effects of combination treatments, as well as efficacy of test agents in inhibiting or inducing biofilm formation. The MBEC™ plates were inoculated with 10^7 CFU/mL of stationary phase E. coli (ATCC 25922) and incubated for 24 hours to allow formation of a robust biofilm. The individual biofilms formed on the pegs were challenged with varying concentrations of antibiotics for 24 hours, followed by recovery of the surviving bacteria. Bacterial enumeration was performed using a Most Probable Number (MPN) assay (Sutton, Journal of Validation Technology 16 (3): 35-38, 2010, incorporated herein by reference) in a 96-well format.

[2] = tested on: E. coli (ATCC 25922) biofilm; assay: MBEC assay, inhibition of biofilm formation; assay type: cell-based, Escherichia coli
Description: as §1, with “formation.” for “formation. The MBEC™ plates were inoculated with 10^7 CFU/mL of stationary phase E. coli (ATCC 25922) and incubated for 24 hours to allow formation of a robust biofilm. The individual biofilms formed on the pegs were challenged with varying concentrations of antibiotics for 24 hours, followed by recovery of the surviving bacteria. Bacterial enumeration was performed using a Most Probable Number (MPN) assay (Sutton, Journal of Validation Technology 16 (3): 35-38, 2010, incorporated herein by reference) in a 96-well format.”
The MBEC™ plates were inoculated with either 10^5 CFU/mL (low inoculum) or 10^7 CFU/mL (high inoculum) of stationary phase E. coli (ATCC 25922) with simultaneous addition of antibiotics to evaluate the progression of biofilm formation under antibiotic challenge. After 24 hour incubation, the bacteria were recovered and enumerated (as above). FIG. 6. […] FIG. 7.

[3] = IV to oral transition therapy; cUTI; cited from earlier work
[4] = IV; cIAI; cited from earlier work
human plasma protein = conditions: cited from earlier work

Structure (SMILES): O=C(O)c1cn(C2CC2)c2cc(N3CCNCC3)c(F)cc2c1=O [ciprofloxacin]
- reduction of total biofilm-associated bacteria ([1]; at around MIC): did not show activity
- reduction in bioburden ([1]; at higher concentrations): up to 5 log units
- reduction in total bioburden of biofilm compared to control ([2]; (approx. 15% of MIC), low inoculum): no reduction in the total bioburden
- induction of biofilm formation ([2]; sub-MIC doses): did not induce biofilm formation

Structure (SMILES): CN(C)[C@@H]1C(O)=C(C(N)=O)C(=O)[C@@]2(O)C(O)=C3C(=O)c4c(O)c(NC(=O)CN5CCCC5)cc(F)c4C[C@H]3C[C@@H]12 [eravacycline]
- primary endpoint, non-inferiority compared to levofloxacin [3]: failed to achieve its primary endpoint of statistical non-inferiority
- primary endpoint [4]: did meet its primary endpoint
- human plasma protein binding (human plasma protein; Concentration 100 ng/mL, literature): 79.3%
- human plasma protein binding (human plasma protein; Concentration 1,000 ng/mL, literature): 87.0%
- human plasma protein binding (human plasma protein; Concentration 10,000 ng/mL, literature): 89.3%
- human plasma protein binding (human plasma protein; Concentration 100,000 ng/mL, literature): 97.0%
- type of plasma protein binding (human plasma protein; binding increases with increasing drug concentrations): atypical, non-linear protein binding
- human plasma protein binding, Mean (human plasma protein; literature): 79-97%
